Numbers after ± are expanded uncertainties.
Experiment: xn = mol fraction of the nth substance listed
Details: 101 kPa, Liquid, Vibrating tube method, x1 = 1

O [water] + CN(C)CCCN
Details	mass density [kg/m3]
283.15 K	999.7 ± 0.51
323.15 K	988.03 ± 0.5
328.15 K	985.69 ± 0.5
333.15 K	983.191 ± 0.5
338.15 K	980.55 ± 0.5
343.15 K	977.76 ± 0.5
348.15 K	974.84 ± 0.5
353.15 K	971.79 ± 0.49

From the NIST ThermoML archive (doi:10.1016/j.tca.2006.04.016)
